According to the NIST ThermoML archive (doi:10.1007/s10765-009-0651-x):

Columns and labels:
[1] = wn = mass fraction of the nth substance listed; conditions: 101 kPa, Liquid

CC#N [acetonitrile]
Conditions	mass density [kg/m3]
308.1 K, 101.33 kPa, Liquid, Vibrating tube method	765.98

Cn1cc[n+](C)c1.[Cl-] [1,3-dimethylimidazolium chloride]
Conditions	Normal melting temperature [°C]
Crystal, visual observation	126.00

Cn1cc[n+](C)c1.[Cl-] [1,3-dimethylimidazolium chloride] + O
mass density [kg/m3], [1]
Conditions	w2 = 0.2004	w2 = 0.3015	w2 = 0.4019	w2 = 0.5001	w2 = 0.5992	w2 = 0.7003	w2 = 0.8003	w2 = 0.898
293.15 K	1157.78	1135.29	1111.77	1089.04	1067.56	1047.52	1030.53	1014.07
298.15 K	1154.79	1132.4	1109.03	1087.14	1065.77	1045.81	1027.98	1012.2
303.15 K	1152.15	1129.93	1106.69	1084.55	1063.34	1043.7	1026.15	1010.57
308.15 K	1149.31	1127.15	1104.22	1082.68	1061.63	1041.8	1024.53	1008.86
313.15 K	1146.46	1124.33	1101.07	1080.38	1059.44	1039.52	1022.66	1007.2
318.15 K	1143.59	1121.85	1098.34	1078.58	1057.08	1037.12	1021.05	1005.65
